According to PubChem BioAssay AID330 (DTP/NCI, 2004):
Several values for one entry are separate records, joined by “and”; a condition that tells them apart may be missing. Equal entries are not always repeated. Toxic doses and inconclusive results are not listed.

System: P388 leukemia ip, CD2F1 mice, survival T/C
Assay: NCI In Vivo Anticancer Drug Screen. Data for tumor model P388 Leukemia (intraperitoneal) in CD2F1 (CDF1) mice
Settings: endpoint: median survival time, higher = longer survival
Procedure, shortened: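 Mice carrying the transplanted tumor received test compound or vehicle. Survival was recorded in each group, and the value is the treated-group measurement divided by that of the vehicle-treated control group.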

COc1cc2cc(c1Cl)N(C)C(=O)C[C@H](OC(=O)[C@H](C)N(C)C(C)=O)[C@]1(C)O[C@H]1[C@H](C)[C@@H]1C[C@@](O)(NC(=O)O1)[C@H](OC)C=C/C=C(\C)C2
T/C (dose: 0.01 mg/kg/injection, schedule: Q01DX005 (iv), vehicle: saline): 117 % of control
T/C (dose: 0.03 mg/kg/injection, schedule: Q01DX005 (iv), vehicle: saline): 107 % of control
T/C (dose: 0.05 mg/kg/injection, schedule: Q01DX005 (ip), vehicle: saline): 158 % of control
T/C (dose: 0.05 mg/kg/injection, schedule: Q01DX005 (iv), vehicle: saline): 104 % of control
T/C (dose: 0.05 mg/kg/injection, schedule: Q04DX002 (ip), vehicle: saline + alcohol): 169 % of control
T/C (dose: 0.08 mg/kg/injection, schedule: Q04DX002 (ip), vehicle: saline + alcohol): 171 % of control
T/C (dose: 0.1 mg/kg/injection, schedule: Q01DX005 (ip), vehicle: saline): 172 % of control
T/C (dose: 0.1 mg/kg/injection, schedule: Q01DX005 (iv), vehicle: saline): 107 % of control
T/C (dose: 0.16 mg/kg/injection, schedule: Q04DX003 (ip), vehicle: saline): 123 % of control
T/C (dose: 0.1 micrograms/kg/injection, schedule: Q01DX009 (ip), vehicle: saline): 100 % of control
T/C (dose: 0.3 micrograms/kg/injection, schedule: Q03HX016 (ip), vehicle: other): 122 % of control
T/C (dose: 0.4 micrograms/kg/injection, schedule: Q01DX009 (ip), vehicle: saline): 112 % of control
T/C (dose: 0.5 micrograms/kg/injection, schedule: Q01DX009 (oral), vehicle: other): 100 % of control
T/C (dose: 0.5 micrograms/kg/injection, schedule: Q01DX009 (sc), vehicle: other): 100 % of control
T/C (dose: 0.5 micrograms/kg/injection, schedule: Q03HX008 (ip), vehicle: other): 122 % of control
T/C (dose: 0.8 micrograms/kg/injection, schedule: Q01DX009 (ip), vehicle: saline): 120 % of control
T/C (dose: 1.0 micrograms/kg/injection, schedule: Q01DX001 (ip), vehicle: other): 109 % of control
T/C (dose: 1.0 micrograms/kg/injection, schedule: Q01DX009 (ip), vehicle: saline + alcohol): 111 % of control
T/C (dose: 1.0 micrograms/kg/injection, schedule: Q01DX009 (oral), vehicle: other): 100 % of control
T/C (dose: 1.0 micrograms/kg/injection, schedule: Q01DX009 (sc), vehicle: other): 100 % of control
T/C (dose: 1.0 micrograms/kg/injection, schedule: Q08DX002 (ip), vehicle: other): 109 % of control
T/C (dose: 2.0 micrograms/kg/injection, schedule: Q01DX001 (oral), vehicle: other): 100 % of control
T/C (dose: 2.0 micrograms/kg/injection, schedule: Q01DX001 (sc), vehicle: other): 100 % of control
T/C (dose: 2.0 micrograms/kg/injection, schedule: Q01DX009 (ip), vehicle: water): 117 % of control
T/C (dose: 2.0 micrograms/kg/injection, schedule: Q01DX009 (sc), vehicle: other): 100 % of control
T/C (dose: 3.1 micrograms/kg/injection, schedule: Q01DX009 (ip), vehicle: saline + alcohol): 158 % of control
T/C (dose: 4.0 micrograms/kg/injection, schedule: Q01DX001 (oral), vehicle: other): 100 % of control
T/C (dose: 4.0 micrograms/kg/injection, schedule: Q01DX009 (ip), vehicle: other): 154 % of control
T/C (dose: 4.0 micrograms/kg/injection, schedule: Q01DX009 (ip), vehicle: water): 157 % of control
T/C (dose: 4.0 micrograms/kg/injection, schedule: Q01DX009 (oral), vehicle: other): 104 % of control
T/C (dose: 4.0 micrograms/kg/injection, schedule: Q01DX009 (sc), vehicle: other): 100 % of control
T/C (dose: 4.0 micrograms/kg/injection, schedule: Q03HX016 (ip), vehicle: other): 159 % of control
T/C (dose: 6.3 micrograms/kg/injection, schedule: Q01DX009 (ip), vehicle: saline + alcohol): 160 % of control
T/C (dose: 6.3 micrograms/kg/injection, schedule: Q01DX009 (ip), vehicle: saline): 159 % of control
T/C (dose: 8.0 micrograms/kg/injection, schedule: Q01DX001 (oral), vehicle: other): 104 % of control
T/C (dose: 8.0 micrograms/kg/injection, schedule: Q01DX001 (sc), vehicle: other): 100 % of control
T/C (dose: 8.0 micrograms/kg/injection, schedule: Q01DX005 (ip), vehicle: saline + alcohol): 157 % of control
T/C (dose: 8.0 micrograms/kg/injection, schedule: Q01DX009 (ip), vehicle: other): 154 % of control
T/C (dose: 8.0 micrograms/kg/injection, schedule: Q01DX009 (ip), vehicle: water): 150 % of control
T/C (dose: 8.0 micrograms/kg/injection, schedule: Q01DX009 (oral), vehicle: other): 100 % of control
T/C (dose: 8.0 micrograms/kg/injection, schedule: Q01DX009 (sc), vehicle: other): 100 % of control
T/C (dose: 8.0 micrograms/kg/injection, schedule: Q03HX008 (ip), vehicle: other): 163 % of control
T/C (dose: 8.0 micrograms/kg/injection, schedule: Q03HX016 (ip), vehicle: other): 163 % of control
T/C (dose: 8.0 micrograms/kg/injection, schedule: Q03HX016 (ip), vehicle: saline + alcohol): 163 % of control
T/C (dose: 8.0 micrograms/kg/injection, schedule: Q04DX003 (ip), vehicle: other): 150 % of control
T/C (dose: 12.5 micrograms/kg/injection, schedule: Q01DX009 (ip), vehicle: saline + alcohol): 159 % of control and 172 % of control
T/C (dose: 16.0 micrograms/kg/injection, schedule: Q01DX001 (oral), vehicle: other): 100 % of control
T/C (dose: 16.0 micrograms/kg/injection, schedule: Q01DX001 (sc), vehicle: other): 100 % of control
T/C (dose: 16.0 micrograms/kg/injection, schedule: Q01DX005 (ip), vehicle: saline + alcohol): 155 % of control and 157 % of control and 160 % of control
T/C (dose: 16.0 micrograms/kg/injection, schedule: Q01DX009 (ip), vehicle: water): 159 % of control
T/C (dose: 16.0 micrograms/kg/injection, schedule: Q01DX009 (oral), vehicle: other): 100 % of control
T/C (dose: 16.0 micrograms/kg/injection, schedule: Q01DX009 (sc), vehicle: other): 100 % of control
T/C (dose: 16.0 micrograms/kg/injection, schedule: Q03HX008 (ip), vehicle: saline + alcohol): 163 % of control
T/C (dose: 16.0 micrograms/kg/injection, schedule: Q04DX003 (ip), vehicle: other): 154 % of control
T/C (dose: 16.0 micrograms/kg/injection, schedule: Q04DX003 (ip), vehicle: water): 151 % of control
T/C (dose: 25.0 micrograms/kg/injection, schedule: Q01DX009 (ip), vehicle: saline + alcohol): 163 % of control
T/C (dose: 32.0 micrograms/kg/injection, schedule: Q01DX001 (oral), vehicle: other): 100 % of control
T/C (dose: 32.0 micrograms/kg/injection, schedule: Q01DX001 (sc), vehicle: other): 100 % of control
T/C (dose: 32.0 micrograms/kg/injection, schedule: Q01DX005 (ip), vehicle: saline + alcohol): 163 % of control and 172 % of control
T/C (dose: 32.0 micrograms/kg/injection, schedule: Q01DX009 (oral), vehicle: other): 109 % of control
T/C (dose: 32.0 micrograms/kg/injection, schedule: Q01DX009 (sc), vehicle: other): 104 % of control
T/C (dose: 32.0 micrograms/kg/injection, schedule: Q03HX016 (ip), vehicle: saline + alcohol): 163 % of control
T/C (dose: 32.0 micrograms/kg/injection, schedule: Q03HX024 (ip), vehicle: saline + alcohol): 122 % of control
T/C (dose: 32.0 micrograms/kg/injection, schedule: Q04DX003 (ip), vehicle: other): 172 % of control
T/C (dose: 50.0 micrograms/kg/injection, schedule: Q01DX005 (ip), vehicle: saline): 173 % of control
T/C (dose: 50.0 micrograms/kg/injection, schedule: Q01DX009 (ip), vehicle: saline + alcohol): 159 % of control
T/C (dose: 64.0 micrograms/kg/injection, schedule: Q01DX001 (oral), vehicle: other): 100 % of control
T/C (dose: 64.0 micrograms/kg/injection, schedule: Q01DX001 (sc), vehicle: other): 100 % of control
T/C (dose: 64.0 micrograms/kg/injection, schedule: Q01DX005 (ip), vehicle: saline + alcohol): 173 % of control and 175 % of control
T/C (dose: 64.0 micrograms/kg/injection, schedule: Q01DX009 (oral), vehicle: other): 104 % of control
T/C (dose: 64.0 micrograms/kg/injection, schedule: Q01DX009 (sc), vehicle: other): 109 % of control
T/C (dose: 64.0 micrograms/kg/injection, schedule: Q03HX008 (ip), vehicle: saline + alcohol): 159 % of control
T/C (dose: 64.0 micrograms/kg/injection, schedule: Q04DX003 (ip), vehicle: water): 161 % of control
T/C (dose: 64.0 micrograms/kg/injection, schedule: Q08DX002 (ip), vehicle: other): 150 % of control
T/C (dose: 86.4 micrograms/kg/injection, schedule: Q04DX002 (ip), vehicle: saline + alcohol): 160 % of control
T/C (dose: 128.0 micrograms/kg/injection, schedule: Q01DX001 (ip), vehicle: other): 154 % of control
T/C (dose: 128.0 micrograms/kg/injection, schedule: Q01DX001 (oral), vehicle: other): 104 % of control
T/C (dose: 128.0 micrograms/kg/injection, schedule: Q01DX001 (sc), vehicle: other): 109 % of control
T/C (dose: 128.0 micrograms/kg/injection, schedule: Q01DX009 (oral), vehicle: other): 100 % of control
T/C (dose: 128.0 micrograms/kg/injection, schedule: Q01DX009 (sc), vehicle: saline + alcohol): 154 % of control
T/C (dose: 128.0 micrograms/kg/injection, schedule: Q04DX003 (ip), vehicle: saline + alcohol): 163 % of control
T/C (dose: 128.0 micrograms/kg/injection, schedule: Q04DX003 (ip), vehicle: water): 150 % of control
T/C (dose: 128.0 micrograms/kg/injection, schedule: Q08DX002 (ip), vehicle: other): 163 % of control
T/C (dose: 128.0 micrograms/kg/injection, schedule: Q08DX002 (ip), vehicle: saline + alcohol): 163 % of control
T/C (dose: 128.0 micrograms/kg/injection, schedule: Q08DX002 (ip), vehicle: saline): 154 % of control
T/C (dose: 144.0 micrograms/kg/injection, schedule: Q04DX002 (ip), vehicle: saline + alcohol): 169 % of control
T/C (dose: 256.0 micrograms/kg/injection, schedule: Q01DX001 (ip), vehicle: other): 150 % of control
T/C (dose: 256.0 micrograms/kg/injection, schedule: Q01DX001 (ip), vehicle: saline + alcohol): 150 % of control
T/C (dose: 256.0 micrograms/kg/injection, schedule: Q01DX001 (oral), vehicle: other): 104 % of control
T/C (dose: 256.0 micrograms/kg/injection, schedule: Q01DX009 (sc), vehicle: saline + alcohol): 172 % of control
T/C (dose: 256.0 micrograms/kg/injection, schedule: Q08DX002 (ip), vehicle: saline): 172 % of control
T/C (dose: 512.0 micrograms/kg/injection, schedule: Q01DX001 (ip), vehicle: saline + alcohol): 154 % of control
T/C (dose: 512.0 micrograms/kg/injection, schedule: Q01DX001 (oral), vehicle: other): 100 % of control
T/C (dose: 1024.0 micrograms/kg/injection, schedule: Q08DX002 (ip), vehicle: saline): 109 % of control
